How the values were obtained:
Human gammaherpesvirus 4 [1] = experiment: Antiviral activity against EBV infected in TPA and sodium butyrate-induced P3HR1 cells assessed as inhibition on EBV lytic replication at 20 uM incubated for 48 hrs by SYBR green dye based real-time PCR method; format: functional; conditions: human gammaherpesvirus 4, P3HR-1, 48 h
Human gammaherpesvirus 4 [2] = experiment: Antiviral activity against EBV infected in TPA and sodium butyrate-induced P3HR1 cells assessed as inhibition on EBV lytic replication incubated for 48 hrs by SYBR green dye based real-time PCR method; format: functional, organism-based; conditions: human gammaherpesvirus 4, P3HR-1, 48 h
[3] = Selectivity index, ratio of CC50 for human P3HR1 cells to EC50 for EBV infected in TPA and sodium butyrate-induced P3HR1 cells; parameters: species or system P3HR-1
[4] = Cytotoxicity against human P3HR1 cells assessed as reduction in cell viability incubated for 48 hrs by trypan blue dye exclusion assay; format: cell-based, P3HR-1

| EC50 (Human gammaherpesvirus 4 [2]) | SMILES | inhibition at 20 µM (Human gammaherpesvirus 4 [1]) | Ratio CC50/EC50 [3] | CC50 at 48 h [4] |
| --- | --- | --- | --- | --- |
|  | CC(=O)O[C@@H](CC1=CC(=O)OC1)[C@]1(C)[C@H]2CCC=C(C)[C@]2(C)[C@@H](OC(C)=O)[C@H](OC(C)=O)[C@]1(C)O | < 50% |  |  |
|  | CC(=O)O[C@@H](CC1=CC(=O)OC1)[C@]1(C)[C@H]2CCC=C(C)[C@]2(C)[C@@H](OC(=O)c2cccnc2)[C@H](OC(=O)c2ccccc2)[C@]1(C)O [BARBATELLARINES B] | < 50% |  |  |
| 16.4 µM | CC(=O)O[C@H]1[C@H](OC(=O)c2cccnc2)[C@@]2(C)C(C)=CC[C@@H](OC(=O)c3cccnc3)[C@@H]2[C@@]2(C)CC[C@]3(COC(=O)C3)O[C@@]12C | > 50% | 109.2 | 1790 µM |
|  | CC1=CCC[C@H]2[C@@]1(C)[C@@H](OC(=O)c1cccnc1)[C@H](OC(=O)C(C)C)[C@](C)(O)[C@]2(C)/C=C/C1=CC(=O)OC1 | < 50% |  |  |
|  | CC(=O)O[C@H]1[C@H](OC(=O)C(C)C)[C@](C)(O)[C@](C)(/C=C/C2=CC(=O)OC2)[C@H]2CCC=C(C)[C@]12C | < 50% |  |  |
| 12.9 µM | CC(=O)O[C@H]1[C@H](OC(C)=O)[C@]2(C)O[C@]3(CC[C@]2(C)[C@H]2[C@H](OC(=O)c4ccccc4)CC=C(C)[C@]12C)COC(=O)C3 | > 50% | 57.2 | 738 µM |
| 14.3 µM | CC1=CCC[C@H]2[C@@]1(C)[C@@H](OC(=O)c1ccccc1)[C@H](OC(=O)c1ccccc1)[C@](C)(O)[C@]2(C)/C=C/C1=CC(=O)OC1 | > 50% | 2.1 | 30 µM |
|  | CC1=CCC[C@H]2[C@@]1(C)[C@@H](OC(=O)c1cccnc1)[C@H](OC(=O)c1cccnc1)[C@]1(C)O[C@]3(COC(=O)C3)C[C@H](OC(=O)c3cccnc3)[C@]21C | < 50% |  |  |
|  | CC1=CCC[C@H]2[C@@]1(C)[C@@H](OC(=O)c1cccnc1)[C@H](OC(=O)c1cccnc1)[C@](C)(O)[C@]2(C)/C=C/C1=CC(=O)OC1 | < 50% |  |  |
|  | C=C1[C@@H](O)CC[C@H]2[C@@]1(C)[C@@H](OC(=O)c1ccccc1)[C@H](OC(=O)c1ccccc1)[C@](C)(O)[C@]2(C)/C=C/C1=CC(=O)OC1 | < 50% |  |  |
| 5.43 µM | C=CC(C)(C)c1cc2cc3c(cc2oc1=O)O[C@H](C(C)(C)OC(C)=O)C3 |  | >39.6 | > 150 µM |
| 18.3 µM | CC1=CCC[C@H]2[C@@]1(C)[C@@H](OC(=O)c1ccccc1)[C@H](O)[C@]1(C)O[C@]3(COC(=O)C3)C[C@H](OC(=O)c3ccccc3)[C@]21C | > 50% | 3.6 | 66.5 µM |
|  | CC(=O)O[C@H]1[C@H](OC(=O)c2cccnc2)[C@@]2(C)C(C)=CCC[C@@H]2[C@@]2(C)[C@@H](OC(=O)c3cccnc3)C[C@@]3(COC(=O)C3)O[C@@]12C | < 50% |  |  |
|  | CC(=O)O[C@H]1[C@H](OC(C)=O)[C@]2(C)O[C@]3(CC[C@]2(C)[C@H]2[C@H](OC(=O)c4cccnc4)CC=C(C)[C@]12C)COC(=O)C3 | < 50% |  |  |
|  | CC(=O)O[C@H]1[C@H](OC(C)=O)[C@](C)(O)[C@](C)(/C=C/C2=CC(=O)OC2)[C@H]2CCC=C(C)[C@]12C | < 50% |  |  |
| 23.6 µM | CC1=CCC[C@H]2[C@@]1(C)[C@@H](OC(=O)c1ccccc1)[C@H](OC(=O)c1cccnc1)[C@](C)(O)[C@]2(C)/C=C/C1=CC(=O)OC1 | > 50% | 61.1 | 1440 µM |
|  | CC(=O)O[C@H]1[C@H](OC(=O)c2ccccc2)[C@](C)(O)[C@](C)(/C=C/C2=CC(=O)OC2)[C@H]2CCC=C(C)[C@]12C | < 50% |  |  |
| 18.7 µM | CC(=O)OC(C(=O)O[C@H]1[C@H](OC(=O)c2cccnc2)[C@@]2(C)C(C)=CCC[C@@H]2[C@@](C)(/C=C/C2=CC(=O)OC2)[C@@]1(C)O)C(C)C (some centres not stated) | > 50% | 16.4 | 307 µM |
| 5.2 µM | CC1=CCC[C@H]2[C@@]1(C)[C@@H](OC(=O)c1ccccc1)[C@H](O)[C@]1(C)O[C@]3(COC(=O)[C@@H]3O)C[C@H](OC(=O)c3ccccc3)[C@]21C | > 50% | 2.9 | 15.1 µM |
| 3.2 µM | CC(=O)OC(C(=O)O[C@H]1[C@H](OC(=O)c2ccccc2)[C@@]2(C)C(C)=CCC[C@@H]2[C@@](C)(/C=C/C2=CC(=O)OC2)[C@@]1(C)O)C(C)C (some centres not stated) | > 50% | 46.1 | 148 µM |
|  | CC(=O)O[C@@H](CC1=CC(=O)OC1)[C@]1(C)[C@H]2CCC=C(C)[C@]2(C)[C@@H](OC(=O)c2cccnc2)[C@H](OC(=O)c2cccnc2)[C@]1(C)O | < 50% |  |  |
|  | CC(=O)O[C@@H](CC1=CC(=O)OC1)[C@]1(C)[C@H]2CCC=C(C)[C@]2(C)[C@@H](OC(=O)c2cccnc2)[C@H](OC(=O)C(C)C)[C@]1(C)O | < 50% |  |  |
| 9.2 µM | CC1=CCC[C@H]2[C@@]1(C)[C@@H](OC(=O)c1ccccc1)[C@H](OC(=O)C(C)C)[C@](C)(O)[C@]2(C)/C=C/C1=CC(=O)OC1 | > 50% | 5.4 | 49.7 µM |
|  | CC(=O)O[C@H]1[C@H](OC(=O)c2cccnc2)[C@@]2(C)C(C)=CCC[C@@H]2[C@@](C)(/C=C/C2=CC(=O)OC2)[C@@]1(C)O | < 50% |  |  |
|  | CC(=O)O[C@@H](CC1=CC(=O)OC1)[C@]1(C)[C@H]2CCC=C(C)[C@]2(C)[C@@H](OC(C)=O)[C@H](OC(=O)C(C)C)[C@]1(C)O | < 50% |  |  |
| 8.7 µM | CC(=O)O[C@@H](CC1=CC(=O)OC1)[C@]1(C)[C@H]2CCC=C(C)[C@]2(C)[C@@H](OC(=O)c2ccccc2)[C@H](O)[C@]1(C)O | > 50% | 4.3 | 37.8 µM |
| 9.1 µM | CC1=CCC[C@H]2[C@@]1(C)[C@@H](OC(=O)c1ccccc1)[C@H](O)[C@](C)(O)[C@]2(C)/C=C/C1=CC(=O)OC1 | > 50% | 7.5 | 68.3 µM |

Reference: ChEMBL document CHEMBL3576767, “Neo-clerodane diterpenoids from Scutellaria barbata with activity against Epstein-Barr virus lytic replication” (J Nat Prod, 2015)
